Results from ChEMBL document CHEMBL4613209, “Quinolone hybrids and their anti-cancer activities: An overview” (Eur J Med Chem, 2019).
pIC50: −log10 of the molar value. ≈ marks a conversion by molar mass, not a printed value.

Columns and labels:
K562 = assay: Anticancer activity against human K562 cells; format: functional, cell-based
A549 [1] = assay: Antiproliferative activity against human A549 cells by CCK8 assay; format: functional, cell-based
HepG2 [2] = assay: Antiproliferative activity against human HepG2 cells by CCK8 assay; format: functional, cell-based
MCF7 [3] = assay: Antiproliferative activity against human MCF7 cells by CCK8 assay; format: functional, cell-based
PC-3 [4] = assay: Antiproliferative activity against human PC3 cells by CCK8 assay; format: functional, cell-based
HeLa [5] = assay: Antiproliferative activity against human HeLa cells by CCK8 assay; format: functional, cell-based
MCF-10A = assay: Antiproliferative activity against human MCF10A cells by CCK8 assay; format: cell-based
Histone deacetylase = assay: Inhibition of HDAC (unknown origin); format: protein assay, Homo sapiens
Tubulin = assay: Inhibition of tubulin polymerization (unknown origin); format: protein-complex assay, Homo sapiens
PANC-1 [6] = assay: Antiproliferative activity against human PANC1 cells after 48 hrs by MTT assay; format: functional, cell-based; settings: PANC-1, 48 h
HCT-116 [7] = assay: Antiproliferative activity against human HCT116 cells after 48 hrs by MTT assay; format: functional, cell-based; settings: HCT-116, 48 h
HeLa [8] = assay: Antiproliferative activity against human HeLa cells after 48 hrs by MTT assay; format: functional, cell-based
A549 [9] = assay: Antiproliferative activity against human A549 cells after 48 hrs by MTT assay; format: functional, cell-based; settings: A549, 48 h
MCF7 [10] = assay: Cytotoxicity against human MCF7 cells assessed as reduction in cell viability by SRB assay; format: functional, cell-based
HCT-116 [11] = assay: Cytotoxicity against human HCT116 cells assessed as reduction in cell viability by SRB assay; format: functional, cell-based
SiHa = assay: Growth inhibition of human SiHa cells after 48 hrs by SRB assay; format: functional
MDA-MB-231 [12] = assay: Growth inhibition of human MDA-MB-231 cells after 48 hrs by SRB assay; format: functional; settings: MDA-MB-231, 48 h
PANC-1 [13] = assay: Growth inhibition of human PANC1 cells after 48 hrs by SRB assay; format: functional; settings: PANC-1, 48 h
HepG2 [14] = assay: Anticancer activity against human HepG2 cells by MTT assay; format: functional, cell-based
HT-29 = assay: Anticancer activity against human HT-29 cells by MTT assay; format: functional, cell-based
HL-60 [15] = assay: Anticancer activity against human HL60 cells by MTT assay; format: functional, cell-based
A549 [16] = assay: Anticancer activity against human A549 cells by MTT assay; format: functional, cell-based
HeLa [17] = assay: Anticancer activity against human HeLa cells by MTT assay; format: functional, cell-based
HCT-8 = assay: Antiproliferative activity against human HCT8 cells after 48 hrs by MTT assay; format: functional, cell-based; settings: HCT-8, 48 h
PC-3 [18] = assay: Cytotoxicity against human PC3 cells assessed as reduction in cell viability after 48 hrs by SRB assay; format: functional, cell-based; settings: PC-3, 48 h
DU-145 [19] = assay: Cytotoxicity against human DU145 cells assessed as reduction in cell viability after 48 hrs by SRB assay; format: functional, cell-based; settings: DU-145, 48 h
MCF7 [20] = assay: Cytotoxicity against human MCF7 cells assessed as reduction in cell viability after 48 hrs by MTT assay; format: functional, cell-based; settings: MCF7, 48 h
T47D = assay: Cytotoxicity against human T47D cells assessed as reduction in cell viability after 48 hrs by MTT assay; format: functional, cell-based
MDA-MB-231 [21] = assay: Cytotoxicity against human MDA-MB-231 cells assessed as reduction in cell viability after 48 hrs by MTT assay; format: functional, cell-based; settings: MDA-MB-231, 48 h
MCF7 [22] = assay: Cytotoxicity against human MCF7 cells assessed as reduction in cell viability after 72 hrs by MTT assay; format: functional, cell-based; settings: MCF7, 72 h
MCF7-DOX = assay: Anticancer activity against human MCF7/Dox cells after 48 hrs by SRB assay; format: functional, cell-based
MCF7 [23] = assay: Anticancer activity against human MCF7 cells after 48 hrs by SRB assay; format: functional, cell-based; settings: MCF7, 48 h
SK-OV-3 = assay: Anticancer activity against human SKOV3 cells after 48 hrs by SRB assay; format: functional, cell-based; settings: SK-OV-3, 48 h
PANC-1 [24] = assay: Anticancer activity against human PANC1 cells after 48 hrs by SRB assay; format: functional, cell-based; settings: PANC-1, 48 h
HeLa [25] = assay: Anticancer activity against human HeLa cells after 48 hrs by SRB assay; format: functional, cell-based
HL-60 [26] = assay: Anticancer activity against human HL60 cells after 48 hrs by SRB assay; format: functional, cell-based; settings: HL-60, 48 h
HepG2 [27] = assay: Anticancer activity against human HepG2 cells after 48 hrs by SRB assay; format: functional, cell-based; settings: HepG2, 48 h
DU-145 [28] = assay: Anticancer activity against human DU145 cells after 48 hrs by SRB assay; format: functional, cell-based; settings: DU-145, 48 h
A549 [29] = assay: Anticancer activity against human A549 cells after 48 hrs by SRB assay; format: functional, cell-based; settings: A549, 48 h
HCT-116 [30] = assay: Anticancer activity against human HCT116 cells after 48 hrs by SRB assay; format: functional, cell-based; settings: HCT-116, 48 h
[31] = Toxicity in mouse xenografted with human CX-1 cells; settings: in vivo
[32] = Toxicity in mouse xenografted with human MB-9812 cells

SMILES: O=C(O)c1cn([C@@H]2O[C@H](CO)[C@@H](O)[C@H]2O)c2ccc(Oc3ccccc3)cc2c1=O
- pIC50 (K562): 3.70 to 4.19

SMILES: C[C@H]1COc2c(N3CCN(C)CC3)c(F)cc3c(=O)c(C(=O)OCc4cn(CCCCCCCC(=O)NO)nn4)cn1c23
- pIC50 (A549 [1]): 4.89 to 6.52
- pIC50 (HepG2 [2]): 4.89 to 6.52
- pIC50 (MCF7 [3]): 4.89 to 6.52
- pIC50 (PC-3 [4]): 4.89 to 6.52
- pIC50 (HeLa [5]): 4.89 to 6.52
- pIC50 (MCF-10A): < 4.00
- pIC50 (Histone deacetylase): 6.07 to 7.68
- pIC50 (Tubulin): 5.20 to 5.75

SMILES: CCN(CC)Cc1cn(-c2cc3c(cc2F)c(=O)c(C(=O)NO)cn3C2CC2)nn1
- pIC50 (PANC-1 [6]): < 5.00
- pIC50 (HCT-116 [7]): < 5.00
- pIC50 (HeLa [8]): < 5.00
- pIC50 (A549 [9]): < 5.00

SMILES: N#Cc1c(N)c2cc(-c3nc4ccccc4s3)ccc2[nH]c1=O
- pIC50 (MCF7 [10]): 7.13
- pIC50 (HCT-116 [11]): 7.21

SMILES: CCn1cc(C(=O)O)c(=O)c2cnc(N3CCN(C(=O)CCSc4nnnn4-c4ccc(Br)cc4)CC3)nc21
- GI50 (SiHa): 0.08 µM
- GI50 (MDA-MB-231 [12]): 0.22 µM
- GI50 (PANC-1 [13]): 0.07 µM

SMILES: C[C@H]1COc2c(N3CCN(C)CC3)c(F)cc3c(=O)c(C(=O)NCc4cn(CCCCCCC(=O)NO)nn4)cn1c23
- pIC50 (A549 [1]): 5.31 to 6.52
- pIC50 (HepG2 [2]): 5.31 to 6.52
- pIC50 (MCF7 [3]): 5.31 to 6.52
- pIC50 (PC-3 [4]): 5.31 to 6.52
- pIC50 (HeLa [5]): 5.31 to 6.52
- pIC50 (MCF-10A): < 4.00
- pIC50 (Histone deacetylase): 6.07 to 7.68
- pIC50 (Tubulin): 5.20 to 5.75

SMILES: NC(=O)c1cn([C@@H]2O[C@H](CO)[C@@H](O)[C@H]2O)c2ccc(Oc3ccccc3)cc2c1=O
- pIC50 (K562): 4.11

SMILES: CCOC(=O)c1cn(Cc2cn(-c3ccc(Cl)cc3)nn2)c2ccc(Cl)cc2c1=O
- pIC50 (HepG2 [14]): 4.05 to 4.88
- pIC50 (HT-29): 4.05 to 4.88
- pIC50 (HL-60 [15]): 4.05 to 4.88

SMILES: C[C@H]1COc2c(N3CCN(C)CC3)c(F)cc3c(=O)c(C(=O)OCc4cn(CCCCCC(=O)NO)nn4)cn1c23
- pIC50 (A549 [1]): 4.89 to 6.52
- pIC50 (HepG2 [2]): 4.89 to 6.52
- pIC50 (MCF7 [3]): 4.89 to 6.52
- pIC50 (PC-3 [4]): 4.89 to 6.52
- pIC50 (HeLa [5]): 4.89 to 6.52
- pIC50 (MCF-10A): < 4.00
- pIC50 (Histone deacetylase): 6.07 to 7.68
- pIC50 (Tubulin): 5.20 to 5.75

SMILES: C[C@H]1COc2c(N3CCN(C)CC3)c(F)cc3c(=O)c(C(=O)OCc4cn(CCCCCCC(=O)NO)nn4)cn1c23
- pIC50 (A549 [1]): 4.89 to 6.52
- pIC50 (HepG2 [2]): 4.89 to 6.52
- pIC50 (MCF7 [3]): 4.89 to 6.52
- pIC50 (PC-3 [4]): 4.89 to 6.52
- pIC50 (HeLa [5]): 4.89 to 6.52
- pIC50 (MCF-10A): < 4.00
- pIC50 (Histone deacetylase): 6.07 to 7.68
- pIC50 (Tubulin): 5.20 to 5.75

SMILES: C[C@H]1COc2c(N3CCN(C)CC3)c(F)cc3c(=O)c(C(=O)NCc4cn(CCCCCC(=O)NO)nn4)cn1c23
- pIC50 (A549 [1]): 4.89 to 6.52
- pIC50 (HepG2 [2]): 4.89 to 6.52
- pIC50 (MCF7 [3]): 4.89 to 6.52
- pIC50 (PC-3 [4]): 4.89 to 6.52
- pIC50 (HeLa [5]): 4.89 to 6.52
- pIC50 (MCF-10A): < 4.00
- pIC50 (Histone deacetylase): 6.07 to 7.68
- pIC50 (Tubulin): 5.20 to 5.75

SMILES: CCOC(=O)c1cn(Cc2cn(-c3ccc(Cl)cc3)nn2)c2ccc(F)cc2c1=O
- pIC50 (HepG2 [14]): 4.15 to 4.88
- pIC50 (HT-29): 4.15 to 4.88
- pIC50 (HL-60 [15]): 4.15 to 4.88
- pIC50 (A549 [16]): 4.15 to 4.88
- pIC50 (HeLa [17]): 4.15 to 4.88

SMILES: CCCN(CCC)Cc1cn(-c2cc3c(cc2F)c(=O)c(C(=O)NO)cn3C2CC2)nn1
- pIC50 (PANC-1 [6]): < 5.00
- pIC50 (HCT-116 [7]): < 5.00
- pIC50 (HeLa [8]): < 5.00
- pIC50 (A549 [9]): < 5.00

SMILES: COc1ccc(C2CC(c3c(-c4ccccc4)c4ccccc4[nH]c3=O)=NN2c2ccccc2)cc1 (stereo not drawn)
- pIC50 (HCT-116 [7]): 5.66
- pIC50 (HeLa [8]): 5.62
- pIC50 (HCT-8): 5.25

SMILES: O=C(NO)c1cn(C2CC2)c2cc(-n3cc(CN4CCCCC4)nn3)c(F)cc2c1=O
- pIC50 (PANC-1 [6]): < 5.00
- pIC50 (HCT-116 [7]): < 5.00
- pIC50 (HeLa [8]): < 5.00
- pIC50 (A549 [9]): < 5.00

SMILES: Cn1c(=O)cc(Cc2nnc3n2N=C(c2cc4ccccc4oc2=O)CS3)c2ccccc21
- IC50 (PC-3 [18]): 43.3 µg/mL (≈ 95.1 µM)
- IC50 (DU-145 [19]): 20.4 µg/mL (≈ 44.8 µM)

SMILES: CCOC(=O)c1cn(Cc2cn(-c3ccc(F)cc3)nn2)c2ccc(Cl)cc2c1=O
- pIC50 (HepG2 [14]): 4.18 to 4.87
- pIC50 (HT-29): 4.18 to 4.87
- pIC50 (HL-60 [15]): 4.18 to 4.87
- pIC50 (A549 [16]): 4.18 to 4.87
- pIC50 (HeLa [17]): 4.18 to 4.87

SMILES: COc1cc([C@@H]2c3cc4c(cc3[C@@H](O[C@@H]3O[C@@H]5CO[C@@H](C)O[C@H]5[C@H](O)[C@H]3O)[C@H]3COC(=O)[C@H]23)OCO4)cc(OC)c1O [ETOPOSIDE]
- pIC50 (MCF7 [20]): 4.80 to 4.93
- pIC50 (T47D): 4.80 to 4.93
- pIC50 (MDA-MB-231 [21]): 4.80 to 4.93
- pIC50 (MCF7 [22]): 4.30 to 5.54
- pIC50 (MCF7-DOX): 4.30 to 5.54
- pIC50 (MCF7 [23]): 4.30 to 5.54
- pIC50 (SK-OV-3): 4.30 to 5.54
- pIC50 (PANC-1 [24]): 4.30 to 5.54
- pIC50 (HeLa [25]): 4.30 to 5.54
- pIC50 (HL-60 [26]): 4.30 to 5.54
- pIC50 (HepG2 [27]): 4.30 to 5.54
- pIC50 (DU-145 [28]): 4.30 to 5.54
- pIC50 (A549 [29]): 4.30 to 5.54
- pIC50 (HCT-116 [30]): 4.30 to 5.54
- LD50 [31]: 64 mg/kg
- LD50 [32]: 64 mg/kg
